ChEMBL document CHEMBL4257541, “Development of subnanomolar-affinity serotonin 5-HT4 receptor ligands based on quinoline structures” (Medchemcomm, 2018)

biological target: 5-hydroxytryptamine receptor 4 (Cavia porcellus, UniProt O70528); experiment: Displacement of [3H]-GR113808 from 5-HT4R in Dunkin-Hartley guinea pig straitum nuclear membranes after 30 mins by filter binding method
Sequence (O70528 whole entry): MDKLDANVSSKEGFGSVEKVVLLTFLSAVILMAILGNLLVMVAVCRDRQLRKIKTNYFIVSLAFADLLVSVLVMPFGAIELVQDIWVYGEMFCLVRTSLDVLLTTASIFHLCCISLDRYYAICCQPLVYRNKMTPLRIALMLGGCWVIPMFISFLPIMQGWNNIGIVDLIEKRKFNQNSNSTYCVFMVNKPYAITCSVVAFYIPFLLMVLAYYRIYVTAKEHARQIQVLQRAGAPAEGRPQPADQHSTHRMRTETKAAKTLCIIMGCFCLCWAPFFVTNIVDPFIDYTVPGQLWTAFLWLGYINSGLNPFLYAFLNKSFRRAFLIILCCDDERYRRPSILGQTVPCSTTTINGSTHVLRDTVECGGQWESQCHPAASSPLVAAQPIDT

Ki [nM]	Structure (SMILES)
39	CCCCN1CCC(CNC(=O)c2cc(Cl)c3ccccc3n2)CC1
3.9	CCCCN1CCC(CCC(=O)c2cc(Cl)c(N)cc2OC)CC1
> 1000	CCCCN1CCC(CNC(=O)c2cc(OC)nc3ccccc23)CC1
1.5	CCCCN1CCC(COC(=O)c2ccnc3ccccc23)CC1
15	COc1cc(C(=O)OCCN2CCCCC2)c2ccccc2n1
0.86	CCCCN1CCC(COC(=O)c2cc(Cl)nc3ccccc23)CC1
0.62	CCCCN1CCC(COC(=O)c2cc(OC)nc3ccccc23)CC1
> 1000	COc1cc(C(=O)NCCN2CCCCC2)c2ccccc2n1
304	COc1cc(C(=O)OCCN2CCC(NC(=O)OC(C)(C)C)CC2)c2ccccc2n1
> 1000	O=C(NCCCN1CCCCC1)c1cc(Cl)c2ccccc2n1
76	CCCCN1CCC(CNC(=O)c2ccc3cccc(O)c3n2)CC1
148	CCCCN1CCC(CNC(=O)c2cc(OC)c3ccccc3n2)CC1
0.44	CCCCN1CCC(COC(=O)c2cc(C3CC3)nc3ccccc23)CC1
8	COc1cc(C(=O)OCCN2CCC(CO)CC2)c2ccccc2n1
> 1000	O=C(NCCN1CCCCC1)c1cc(Cl)c2ccccc2n1
